Measurements reported in article PMC5218480 (PLoS ONE, 2017).

System: MV-4-11 cells
Assay: Gene expression microarray analysis (Affymetrix PrimeView) and GSEA
Format: cell-based, human
Set-up: RFU PODN (11730768_x_at) / Fold change /veh PODN (11730768_x_at) / RFU LINC00158 (11744669_a_at) / Fold change /veh LINC00158 (11744669_a_at) / RFU DUSP10 (11751237_a_at) / Fold change /veh DUSP10 (11751237_a_at) / RFU ID3 (11757404_x_at) / Fold change /veh ID3 (11757404_x_at) / RFU PLEKHG5 (11737974_s_at) / Fold change /veh PLEKHG5 (11737974_s_at) / RFU LRRC4B (11730491_at) / Fold change /veh LRRC4B (11730491_at) / RFU GIMAP4 (11747438_a_at) / Fold change /veh GIMAP4 (11747438_a_at) / RFU KRT8 (11758183_x_at) / Fold change /veh KRT8 (11758183_x_at) / RFU CNN1 (11734310_a_at) / Fold change /veh CNN1 (11734310_a_at) / RFU VPS37D (11726825_at) / Fold change /veh VPS37D (11726825_at) / RFU C10orf10 (11716522_x_at) / Fold change /veh C10orf10 (11716522_x_at) / RFU KIR2DL2 /// KIR2DL4 /// KIR2DL5A /// KIR2DL5B /// KIR2DS1 /// KIR2DS2 /// KIR2DS3 /// KIR2DS4 /// KIR3DL3 /// KIR3DL3 /// KIR3DS1 (11738374_at) / Fold change /veh KIR2DL2 /// KIR2DL4 /// KIR2DL5A /// KIR2DL5B /// KIR2DS1 /// KIR2DS2 /// KIR2DS3 /// KIR2DS4 /// KIR3DL3 /// KIR3DL3 /// KIR3DS1 (11738374_at) / RFU C1QL1 (11718748_at) / Fold change /veh C1QL1 (11718748_at) / RFU TMPRSS4 (11747572_a_at) / Fold change /veh TMPRSS4 (11747572_a_at) / RFU HAMP (11756126_x_at) / Fold change /veh HAMP (11756126_x_at) / RFU RNFT2 (11725882_a_at) / Fold change /veh RNFT2 (11725882_a_at) / RFU NR4A2 (11747474_a_at) / Fold change /veh NR4A2 (11747474_a_at) / RFU ABCC12 (11746883_a_at) / Fold change /veh ABCC12 (11746883_a_at) / RFU TMEM136 (11760407_x_at) / Fold change /veh TMEM136 (11760407_x_at) / RFU CLDN22 /// WWC2 (11732394_at) / Fold change /veh CLDN22 /// WWC2 (11732394_at) / RFU HLA-DPB1 (11760878_x_at) / Fold change /veh HLA-DPB1 (11760878_x_at) / RFU SPINT1 (11716480_a_at) / Fold change /veh SPINT1 (11716480_a_at) / RFU GAP43 (11754022_s_at) / Fold change /veh GAP43 (11754022_s_at) / RFU A4GNT (11735810_at) / Fold change /veh A4GNT (11735810_at) / RFU PRB3 (11715151_x_at) / Fold change /veh PRB3 (11715151_x_at) / RFU TUBB4B (11761932_at) / Fold change /veh TUBB4B (11761932_at) / RFU CAPN14 (11732068_a_at) / Fold change /veh CAPN14 (11732068_a_at) / RFU TMCC2 (11721928_a_at) / Fold change /veh TMCC2 (11721928_a_at) / RFU IRGQ (11745062_a_at) / Fold change /veh IRGQ (11745062_a_at) / RFU FAM174B (11720279_a_at) / Fold change /veh FAM174B (11720279_a_at) / RFU TMPRSS4 (11748680_a_at) / Fold change /veh TMPRSS4 (11748680_a_at) / RFU FAM212B (11763350_a_at) / Fold change /veh FAM212B (11763350_a_at) / RFU PLEKHG5 (11743358_a_at) / Fold change /veh PLEKHG5 (11743358_a_at) / RFU ZSCAN30 (11745921_a_at) / Fold change /veh ZSCAN30 (11745921_a_at) / RFU CMKLR1 (11741424_a_at) / Fold change /veh CMKLR1 (11741424_a_at) / RFU LOC101060620 /// MAPK8IP1 (11723275_at) / Fold change /veh LOC101060620 /// MAPK8IP1 (11723275_at) / RFU SPTSSB (11747773_x_at) / Fold change /veh SPTSSB (11747773_x_at) / RFU PRSS12 (11739890_at) / Fold change /veh PRSS12 (11739890_at) / RFU BIN1 (11741810_x_at) / Fold change /veh BIN1 (11741810_x_at) / RFU WNT11 (11732464_a_at) / Fold change /veh WNT11 (11732464_a_at) / RFU C10orf10 (11716521_a_at) / Fold change /veh C10orf10 (11716521_a_at) / RFU C5orf56 (11738089_at) / Fold change /veh C5orf56 (11738089_at) / RFU CYB561 (11721691_x_at) / Fold change /veh CYB561 (11721691_x_at) / RFU ANKRD19P (11752326_a_at) / Fold change /veh ANKRD19P (11752326_a_at) / RFU OR2T12 /// OR2T33 /// OR2T8 (11738714_s_at) / Fold change /veh OR2T12 /// OR2T33 /// OR2T8 (11738714_s_at) / RFU VCAN (11748164_a_at) / Fold change /veh VCAN (11748164_a_at) / RFU JSRP1 (11732532_at) / Fold change /veh JSRP1 (11732532_at) / RFU KRTAP10-11 (11738290_x_at) / Fold change /veh KRTAP10-11 (11738290_x_at) / RFU MYO3A (11730013_a_at) / Fold change /veh MYO3A (11730013_a_at) / RFU EBF3 (11725865_a_at) / Fold change /veh EBF3 (11725865_a_at) / RFU CAMK2N1 (11719241_x_at) / Fold change /veh CAMK2N1 (11719241_x_at) / RFU C5orf56 (11738088_a_at) / Fold change /veh C5orf56 (11738088_a_at) / RFU OLFML3 (11715873_a_at) / Fold change /veh OLFML3 (11715873_a_at) / RFU LOC100653217 /// NTM (11731650_a_at) / Fold change /veh LOC100653217 /// NTM (11731650_a_at) / RFU MAPK11 (11762145_a_at) / Fold change /veh MAPK11 (11762145_a_at) / RFU FIZ1 (11724087_x_at) / Fold change /veh FIZ1 (11724087_x_at) / RFU OASL (11726364_x_at) / Fold change /veh OASL (11726364_x_at) / RFU SOX15 (11748057_x_at) / Fold change /veh SOX15 (11748057_x_at) / RFU CD79A (11719716_a_at) / Fold change /veh CD79A (11719716_a_at) / RFU HIST1H1D (11736915_at) / Fold change /veh HIST1H1D (11736915_at) / RFU CASKIN2 (11723855_a_at) / Fold change /veh CASKIN2 (11723855_a_at) / RFU LOC730098 (11760151_x_at) / Fold change /veh LOC730098 (11760151_x_at) / RFU OR4N2 (11742367_at) / Fold change /veh OR4N2 (11742367_at) / RFU PRRT2 (11749266_a_at) / Fold change /veh PRRT2 (11749266_a_at) / RFU SNX32 (11753110_a_at) / Fold change /veh SNX32 (11753110_a_at) / RFU CDHR5 (11726645_a_at) / Fold change /veh CDHR5 (11726645_a_at) / RFU RCAN1 (11760418_a_at) / Fold change /veh RCAN1 (11760418_a_at) / RFU FAM167A (11723789_a_at) / Fold change /veh FAM167A (11723789_a_at) / RFU FAM26E (11764081_at) / Fold change /veh FAM26E (11764081_at) / RFU ISYNA1 (11749810_s_at) / Fold change /veh ISYNA1 (11749810_s_at) / RFU ACY1 (11761880_at) / Fold change /veh ACY1 (11761880_at) / RFU 11764098_at / Fold change /veh 11764098_at / RFU SAMD14 (11745864_x_at) / Fold change /veh SAMD14 (11745864_x_at) / RFU NPB (11741838_a_at) / Fold change /veh NPB (11741838_a_at) / RFU TMPRSS6 (11731388_a_at) / Fold change /veh TMPRSS6 (11731388_a_at) / RFU KRTAP10-2 (11738614_at) / Fold change /veh KRTAP10-2 (11738614_at) / RFU ARHGAP8 /// PRR5-ARHGAP8 (11727945_x_at) / Fold change /veh ARHGAP8 /// PRR5-ARHGAP8 (11727945_x_at) / RFU KRTAP5-7 /// NADSYN1 (11734609_at) / Fold change /veh KRTAP5-7 /// NADSYN1 (11734609_at) / RFU RASL12 (11751679_a_at) / Fold change /veh RASL12 (11751679_a_at) / RFU CDKN2B (11736163_a_at) / Fold change /veh CDKN2B (11736163_a_at) / RFU PRF1 (11729649_at) / Fold change /veh PRF1 (11729649_at) / RFU, ZNF638 /// ZNF638-IT1 / Fold change vs veh, ZNF638 /// ZNF638-IT1 / RFU, PANK3 / Fold change vs veh, PANK3 / RFU, SH3YL1 / Fold change vs veh, SH3YL1 / RFU, ZEB2 / Fold change vs veh, ZEB2 / RFU, NRIP1 / Fold change vs veh, NRIP1 / RFU, PTTG1IP / Fold change vs veh, PTTG1IP / RFU, CAPN2 / Fold change vs veh, CAPN2 / RFU, MED14 / Fold change vs veh, MED14 / RFU, SNORA58 / Fold change vs veh, SNORA58 / RFU, C1orf63 / Fold change vs veh, C1orf63 / RFU, LRRFIP1 / Fold change vs veh, LRRFIP1 / RFU, NDUFAF7 / Fold change vs veh, NDUFAF7 / RFU, SLC12A2 / Fold change vs veh, SLC12A2 / RFU, IBTK / Fold change vs veh, IBTK / RFU, ESF1 / Fold change vs veh, ESF1 / Fold change vs veh, TMEM50B / RFU, TAOK1 / Fold change vs veh, TAOK1 / RFU, ACBD3 / Fold change vs veh, ACBD3 / RFU, TMA16 / Fold change vs veh, TMA16 / RFU, RWDD3 / Fold change vs veh, RWDD3 / RFU, BCAT1 / Fold change vs veh, BCAT1 / RFU, EDEM3 / Fold change vs veh, EDEM3 / RFU, TMEM33 / Fold change vs veh, TMEM33 / RFU, WDR75 / Fold change vs veh, WDR75 / RFU, AHCTF1 / Fold change vs veh, AHCTF1 / RFU, TFRC / Fold change vs veh, TFRC / RFU, ZDHHC17 / Fold change vs veh, ZDHHC17 / RFU, NOM1 / Fold change vs veh, NOM1 / RFU, ARL8B / Fold change vs veh, ARL8B / RFU, ZBTB11 / Fold change vs veh, ZBTB11 / RFU, TAMM41 / Fold change vs veh, TAMM41 / RFU, KIAA1704 /// LOC100996395 / Fold change vs veh, KIAA1704 /// LOC100996395 / RFU, ING1 / Fold change vs veh, ING1 / RFU, TRMT61B / Fold change vs veh, TRMT61B / RFU, FUBP3 / Fold change vs veh, FUBP3 / RFU, TP53 / Fold change vs veh, TP53 / RFU, TNKS2 / Fold change vs veh, TNKS2 / RFU, ZFP14 / Fold change vs veh, ZFP14 / RFU, ACTR2 / Fold change vs veh, ACTR2 / RFU, PPP3R1 / Fold change vs veh, PPP3R1 / RFU, PIK3R1 / Fold change vs veh, PIK3R1 / RFU, HNRNPA1 / Fold change vs veh, HNRNPA1 / RFU, RNF170 / Fold change vs veh, RNF170 / RFU, ZNF28 / Fold change vs veh, ZNF28 / RFU, RNGTT / Fold change vs veh, RNGTT / RFU, OGT / Fold change vs veh, OGT / RFU, BRD1 / Fold change vs veh, BRD1 / RFU, MARS / Fold change vs veh, MARS / RFU, ZNF655 / Fold change vs veh, ZNF655 / RFU, FAHD1 / Fold change vs veh, FAHD1 / RFU, BDP1 / Fold change vs veh, BDP1 / RFU, LRRCC1 / Fold change vs veh, LRRCC1 / RFU, ARID1A / Fold change vs veh, ARID1A / RFU, ZNF146 / Fold change vs veh, ZNF146 / RFU, ZNF330 / Fold change vs veh, ZNF330 / RFU, GPN3 / Fold change vs veh, GPN3 / RFU, C9orf123 / Fold change vs veh, C9orf123 / RFU, N4BP2L2 / Fold change vs veh, N4BP2L2 / RFU, ARFIP1 / Fold change vs veh, ARFIP1 / RFU, FAM179B / Fold change vs veh, FAM179B / RFU, BCL10 / Fold change vs veh, BCL10 / RFU, UHRF1BP1L / Fold change vs veh, UHRF1BP1L / RFU, BET1 / Fold change vs veh, BET1 / RFU, CNOT2 / Fold change vs veh, CNOT2 / RFU, ZNF268 / Fold change vs veh, ZNF268 / Fold change vs veh, ZNF507 / RFU, DGCR2 / Fold change vs veh, DGCR2 / RFU, WDSUB1 / Fold change vs veh, WDSUB1 / Fold change vs veh, HSP90B1 /// MIR3652 / RFU, ADSS / Fold change vs veh, ADSS / RFU, GK / Fold change vs veh, GK / RFU, ZNF148 / Fold change vs veh, ZNF148 / RFU, TAF9 / Fold change vs veh, TAF9 / RFU, SLC1A5 / Fold change vs veh, SLC1A5 / RFU, SLMO2 / Fold change vs veh, SLMO2 / RFU, ABCC4 / Fold change vs veh, ABCC4 / RFU, LOC101060439 /// RAP1B / Fold change vs veh, LOC101060439 /// RAP1B / RFU, RFX7 / Fold change vs veh, RFX7 / RFU, GTPBP10 / Fold change vs veh, GTPBP10 / RFU, CNEP1R1 / Fold change vs veh, CNEP1R1 / RFU, BIVM-ERCC5 /// ERCC5 / Fold change vs veh, BIVM-ERCC5 /// ERCC5 / RFU, ILF3 / Fold change vs veh, ILF3 / RFU 11762660_at / Fold change /veh 11762660_at / RFU VCAN (11757783_s_at) / Fold change /veh VCAN (11757783_s_at) / RFU DDX43 (11728927_at) / Fold change /veh DDX43 (11728927_at) / RFU KRT8 (11758188_x_at) / Fold change /veh KRT8 (11758188_x_at) / RFU NKD1 (11759106_at) / Fold change /veh NKD1 (11759106_at) / RFU SRD5A1 (11742802_a_at) / Fold change /veh SRD5A1 (11742802_a_at) / RFU TPSAB1 /// TPSB2 (11721975_s_at) / Fold change /veh TPSAB1 /// TPSB2 (11721975_s_at) / RFU GSTM3 (11746129_a_at) / Fold change /veh GSTM3 (11746129_a_at) / RFU IL23R (11737362_x_at) / Fold change /veh IL23R (11737362_x_at) / RFU TMEM51 (11727254_a_at) / Fold change /veh TMEM51 (11727254_a_at) / RFU PIWIL2 (11732686_x_at) / Fold change /veh PIWIL2 (11732686_x_at) / RFU ORM1 (11744905_x_at) / Fold change /veh ORM1 (11744905_x_at) / RFU CCDC152 (11743942_at) / Fold change /veh CCDC152 (11743942_at) / RFU ECM1 (11717891_a_at) / Fold change /veh ECM1 (11717891_a_at) / RFU IL23R (11748794_a_at) / Fold change /veh IL23R (11748794_a_at) / RFU TNFAIP8L3 (11732012_x_at) / Fold change /veh TNFAIP8L3 (11732012_x_at) / RFU MBOAT4 (11741988_at) / Fold change /veh MBOAT4 (11741988_at) / RFU 11764193_at / Fold change /veh 11764193_at / RFU TMEM53 (11763286_at) / Fold change /veh TMEM53 (11763286_at) / RFU MAGEB2 (11727129_at) / Fold change /veh MAGEB2 (11727129_at) / RFU TMEM200A (11744735_a_at) / Fold change /veh TMEM200A (11744735_a_at) / RFU CCDC152 (11751479_a_at) / Fold change /veh CCDC152 (11751479_a_at) / RFU FAM211A (11726209_a_at) / Fold change /veh FAM211A (11726209_a_at) / RFU RGS16 (11746705_a_at) / Fold change /veh RGS16 (11746705_a_at) / RFU VCAN (11755009_s_at) / Fold change /veh VCAN (11755009_s_at) / RFU RHOB (11743442_s_at) / Fold change /veh RHOB (11743442_s_at) / RFU RGS16 (11720943_a_at) / Fold change /veh RGS16 (11720943_a_at) / RFU RGS16 (11720944_at) / Fold change /veh RGS16 (11720944_at) / RFU, VPS4B / Fold change vs veh, VPS4B / RFU, CREB1 / Fold change vs veh, CREB1 / RFU, DNAJC13 / Fold change vs veh, DNAJC13 / RFU, GNAQ / Fold change vs veh, GNAQ / RFU, CDK5R1 / Fold change vs veh, CDK5R1 / RFU, ZRANB3 / Fold change vs veh, ZRANB3 / RFU, CUL4A / Fold change vs veh, CUL4A / RFU, CCNY / Fold change vs veh, CCNY / RFU, UFL1 / Fold change vs veh, UFL1 / RFU, COG3 / Fold change vs veh, COG3 / RFU, DIAPH2 / Fold change vs veh, DIAPH2 / RFU, SKA2 / Fold change vs veh, SKA2 / RFU, AFF3 / Fold change vs veh, AFF3 / RFU, LMF1 / Fold change vs veh, LMF1 / RFU, IPO11 / Fold change vs veh, IPO11 / RFU, DFFB / Fold change vs veh, DFFB / RFU, FOXP1 / Fold change vs veh, FOXP1 / RFU, CARD8 / Fold change vs veh, CARD8 / RFU, STRN3 / Fold change vs veh, STRN3 / RFU, ADK / Fold change vs veh, ADK / RFU, RASSF2 / Fold change vs veh, RASSF2 / RFU, WIPF1 / Fold change vs veh, WIPF1 / RFU, LARP1B / Fold change vs veh, LARP1B / RFU, RASA1 / Fold change vs veh, RASA1 / RFU, RB1 / Fold change vs veh, RB1 / RFU, PPFIA1 / Fold change vs veh, PPFIA1 / RFU, MAT2A / Fold change vs veh, MAT2A / RFU, CCT5 / Fold change vs veh, CCT5 / RFU, WDR92 / Fold change vs veh, WDR92 / RFU, CUX1 / Fold change vs veh, CUX1 / RFU, TTC7A / Fold change vs veh, TTC7A / RFU, TMEM135 / Fold change vs veh, TMEM135 / RFU, DEPTOR / Fold change vs veh, DEPTOR / RFU, CPM / Fold change vs veh, CPM / RFU, DNAJB6 / Fold change vs veh, DNAJB6 / RFU, CACNA2D3 / Fold change vs veh, CACNA2D3 / RFU, DTX4 / Fold change vs veh, DTX4 / RFU, TFCP2 / Fold change vs veh, TFCP2 / RFU, GMCL1 /// GMCL1P1 / Fold change vs veh, GMCL1 /// GMCL1P1 / RFU, AEBP2 / Fold change vs veh, AEBP2 / RFU, SNHG1 /// SNORD22 /// SNORD25 /// SNORD26 /// SNORD27 /// SNORD28 /// SNORD29 /// SNORD31 / Fold change vs veh, SNHG1 /// SNORD22 /// SNORD25 /// SNORD26 /// SNORD27 /// SNORD28 /// SNORD29 /// SNORD31 / Fold change (Aza/veh), C12orf56 (ProbeSet 11735607_a_at) / Fold change (ACY-1035/veh), C12orf56 (ProbeSet 11735607_a_at) / Fold change (Aza/veh), FGFR1OP (ProbeSet 11751329_s_at) / Fold change (ACY-1035/veh), FGFR1OP (ProbeSet 11751329_s_at) / Fold change (Aza/veh), VPS36 (ProbeSet 11739960_a_at) / Fold change (ACY-1035/veh), VPS36 (ProbeSet 11739960_a_at) / RFU SYPL1 (11715823_x_at) / Fold change /veh SYPL1 (11715823_x_at) / RFU IGFBP7 (11715501_s_at) / Fold change /veh IGFBP7 (11715501_s_at) / RFU REEP3 (11722064_at) / Fold change /veh REEP3 (11722064_at) / RFU IGLL1 (11728026_x_at) / Fold change /veh IGLL1 (11728026_x_at): dose or concentration left out as unconfirmed
Conditions: ProbeSet 11760938_a_at; LIST D

Nc1ncn([C@@H]2O[C@H](CO)[C@@H](O)[C@H]2O)c(=O)n1 [azacitidine]
RFU, MAT2A: 129.03 RFU
